According to PubChem BioAssay AID1996:
Converted amounts (≈) assume the structure as drawn.

details: buffer; pH 7.4; 200.0 µM

With `CCOc1ccc2c(c1)nc(C)n2C` as the molecule, how does the solubility kinetic read?
Its solubility kinetic is over 28.5 µg/mL.

With `N#Cc1c(NCc2ccccc2)ccnc1Cl` as the molecule, how does the solubility kinetic read?
The solubility kinetic was 20.2 µg/mL (≈ 82.9 µM).

For `Cc1cc(C)c(S(=O)(=O)c2ccccc2F)c(=O)[nH]1`, which solubility kinetic is on record?
The solubility kinetic was over 42.2 µg/mL.

For `O=C1NC(=O)C(c2ccc(Cl)cc2)N1` (centres undefined), which solubility kinetic is on record?
The solubility kinetic was over 31.6 µg/mL.

Which solubility kinetic does the source give for `Cc1cccc(NC(=O)c2ccc3c(c2)CCN3S(C)(=O)=O)c1` here?
The solubility kinetic was 37.5 µg/mL (≈ 113 µM).

For `O=C(CSc1ncnc2sccc12)Nc1ccccc1`, which solubility kinetic is on record?
The solubility kinetic was 6.9 µg/mL (≈ 22.9 µM).

For `Cc1c(NC(=O)[C@@H](NC(=O)c2ccc(Cl)c([N+](=O)[O-])c2)C(C)C)c(=O)n(-c2ccccc2)n1C`, which solubility kinetic is on record?
Its solubility kinetic is over 72.9 µg/mL.

With `O=[N+]([O-])c1ccc(C2NS(=O)(=O)N=C3CCCCCN32)cc1` (centres undefined) as the molecule, how does the solubility kinetic read?
Its solubility kinetic is over 48.7 µg/mL.

With `COc1ccc2nccnc2c1[N+](=O)[O-]` as the molecule, how does the solubility kinetic read?
The solubility kinetic was over 30.8 µg/mL.

With `S=C(NCCc1ccccc1)NCc1cccc(Cl)c1` as the molecule, how does the solubility kinetic read?
The solubility kinetic was 13.9 µg/mL (≈ 45.6 µM).

For `Cc1cc(=O)cc(C)n1-c1ccccc1N`, which solubility kinetic is on record?
The solubility kinetic was 31.1 µg/mL (≈ 145 µM).

With `N#CC(C#N)=C1NC(N)=C(C#N)C(c2ccccc2)=C1C#N` as the molecule, how does the solubility kinetic read?
Its solubility kinetic is over 42.6 µg/mL.

Which solubility kinetic does the source give for `O=C(OCC(=O)N1CCCC1=O)c1nc(Cl)c(Cl)c(Cl)c1Cl` here?
The solubility kinetic was 32.9 µg/mL (≈ 85.2 µM).

With `CSCC[C@H](NC(=O)c1ccc(OCC2CCCO2)cc1)c1nc2ccccc2[nH]1` (some centres undefined) as the molecule, how does the solubility kinetic read?
The solubility kinetic was 56.9 µg/mL (≈ 134 µM).

Which solubility kinetic does the source give for `CCCCn1c(N)c(N(CC(C)C)C(=O)c2cnccn2)c(=O)[nH]c1=O` here?
Its solubility kinetic is 53.9 µg/mL (≈ 150 µM).

With `CC(NCc1ccccc1C(F)(F)F)C(O)c1ccccc1.Cl` (centres undefined) as the molecule, how does the solubility kinetic read?
Its solubility kinetic is over 51.9 µg/mL.

For `Cc1ccc(CNC(=O)c2cncc(Br)c2)cc1`, which solubility kinetic is on record?
Its solubility kinetic is 9.6 µg/mL (≈ 31.5 µM).

Which solubility kinetic does the source give for `CCNC(=O)C(=O)Nc1cc2c3c(c1)CCC(=O)N3CCC2` here?
Its solubility kinetic is over 45.2 µg/mL.

Which solubility kinetic does the source give for `O=C(Cc1cccc2ccccc12)Nc1ccccc1Br` here?
Its solubility kinetic is under 0.7 µg/mL.

For `CCN(CC)CCCN=Cc1c(O)n(-c2cccc(C)c2)c(=O)c2ccccc12`, which solubility kinetic is on record?
The solubility kinetic was over 58.7 µg/mL.

With `O=C(Nc1cccc([N+](=O)[O-])c1)NC1CCS(=O)(=O)C1` (centres undefined) as the molecule, how does the solubility kinetic read?
Its solubility kinetic is over 44.9 µg/mL.

Which solubility kinetic does the source give for `O=C(NCc1ccc2c(c1)OCO2)Nc1ccc(Cl)cc1` here?
The solubility kinetic was 0.8 µg/mL (≈ 2.63 µM).

Which solubility kinetic does the source give for `COc1cccc(C2CC(=O)Nc3cc(OC)c(OC)cc32)c1` (centres undefined) here?
The solubility kinetic was 20.3 µg/mL (≈ 64.8 µM).

For `COc1ccccc1NC(=O)COc1cccnc1[N+](=O)[O-]`, which solubility kinetic is on record?
Its solubility kinetic is 4.3 µg/mL (≈ 14.2 µM).

With `COc1ccc2nc(NC(=O)c3ccccc3C(=O)O)sc2c1` as the molecule, how does the solubility kinetic read?
Its solubility kinetic is over 49.3 µg/mL.

For `CCNc1nc(NC(C)C)nc(N(C#N)C(C)C(=O)N(CC)CC)n1` (centres undefined), which solubility kinetic is on record?
The solubility kinetic was over 52.3 µg/mL.

With `NS(=O)(=O)c1ccc(NC(=O)c2ccc(OCC3CCCO3)cc2)cc1` (centres undefined) as the molecule, how does the solubility kinetic read?
Its solubility kinetic is 13 µg/mL (≈ 34.5 µM).

For `CCOc1ccccc1NC(=S)NCc1cccn1C`, which solubility kinetic is on record?
The solubility kinetic was 38.5 µg/mL (≈ 133 µM).

With `O=C(/C=C/c1cc(Br)ccc1F)OCC(=O)N1CCOCC1` as the molecule, how does the solubility kinetic read?
Its solubility kinetic is over 55.8 µg/mL.

With `CC(=O)c1ccc(NS(=O)(=O)c2ccc(C(C)(C)C)cc2)cc1` as the molecule, how does the solubility kinetic read?
The solubility kinetic was 1.7 µg/mL (≈ 5.13 µM).

Which solubility kinetic does the source give for `O=C(O)CC(NS(=O)(=O)c1ccc2c(c1)OCCO2)c1ccccc1[N+](=O)[O-]` (centres undefined) here?
The solubility kinetic was over 61.3 µg/mL.

Which solubility kinetic does the source give for `Cc1ccc(C(=O)/C=C/c2cc(C#N)n(C)c2C)cc1` here?
Its solubility kinetic is 1.2 µg/mL (≈ 4.54 µM).

Which solubility kinetic does the source give for `O=C1/C(=C\c2cccnc2)N2CCC1CC2` here?
Its solubility kinetic is over 32.1 µg/mL.

For `COC(=O)C1CCN(C(=O)c2ccc(Cl)c(S(=O)(=O)NCc3ccco3)c2)CC1`, which solubility kinetic is on record?
The solubility kinetic was 53.6 µg/mL (≈ 122 µM).

For `N#CC1(NC(=O)CSc2nnc3n2CCCCC3)CCCCC1`, which solubility kinetic is on record?
Its solubility kinetic is over 50 µg/mL.

Which solubility kinetic does the source give for `C(#Cc1ccccc1)CN1CCCCC1.Cl` here?
Its solubility kinetic is 25.6 µg/mL.

With `COc1ccc(NC(=O)c2ccc(Cl)cc2)c[n+]1[O-]` as the molecule, how does the solubility kinetic read?
Its solubility kinetic is over 41.8 µg/mL.

With `COc1ccccc1C(=O)OCc1ccc2sc(C)nc2c1` as the molecule, how does the solubility kinetic read?
Its solubility kinetic is 3.1 µg/mL (≈ 9.89 µM).

With `O=C(C[n+]1ccccc1)Nc1ccccc1[N+](=O)[O-].[Cl-]` as the molecule, how does the solubility kinetic read?
Its solubility kinetic is 34 µg/mL.

For `CC1CC(C)CN(CC(O)COC2CC(C)CC(C)(C)C2)C1.Cl` (centres undefined), which solubility kinetic is on record?
Its solubility kinetic is 47.9 µg/mL.

With `Cc1cc(C)c2c(=O)c(C#N)coc2c1` as the molecule, how does the solubility kinetic read?
Its solubility kinetic is 26.4 µg/mL (≈ 133 µM).

With `COc1ccc2c(c1)C(=O)Nc1cc(Cl)ccc1N2` as the molecule, how does the solubility kinetic read?
Its solubility kinetic is 15.6 µg/mL (≈ 56.8 µM).

With `CCc1ccccc1NC(=O)COC(=O)c1cccs1` as the molecule, how does the solubility kinetic read?
Its solubility kinetic is 2.9 µg/mL (≈ 10 µM).

For `COc1ccc(C(=O)CN2CCN(c3ccc(F)cc3)CC2)cc1`, which solubility kinetic is on record?
Its solubility kinetic is 13 µg/mL (≈ 39.6 µM).

With `Cc1csc(NC(=O)c2ccc3ccccc3n2)n1` as the molecule, how does the solubility kinetic read?
Its solubility kinetic is 4 µg/mL (≈ 14.9 µM).

Which solubility kinetic does the source give for `COc1ccc2c(c1)CC/C(=C\Nc1ccc3c(c1)OCO3)C2=O` here?
The solubility kinetic was 11.2 µg/mL (≈ 34.6 µM).

For `CC1CCCC(C)N1C(=O)COC(=O)c1c[nH]c2ccccc12` (centres undefined), which solubility kinetic is on record?
Its solubility kinetic is 8.1 µg/mL (≈ 25.8 µM).

Which solubility kinetic does the source give for `Cc1cccc[n+]1CC(=O)c1ccc(Cl)cc1.[Cl-]` here?
The solubility kinetic was 32.9 µg/mL.

For `O=C(CN1CCN(Cc2ccc(F)cc2)CC1)Nc1ccccc1F`, which solubility kinetic is on record?
Its solubility kinetic is over 51.8 µg/mL.

Which solubility kinetic does the source give for `Cc1nn(C)c(C)c1NS(=O)(=O)c1c(C)n[nH]c1C` here?
Its solubility kinetic is over 42.5 µg/mL.

With `Nc1ccccc1SC1CC(=O)N(c2ccc3c(c2)OCCO3)C1=O` (centres undefined) as the molecule, how does the solubility kinetic read?
Its solubility kinetic is 0.9 µg/mL (≈ 2.53 µM).

Which solubility kinetic does the source give for `Cc1csc(NC(=O)C2CC(=O)N(c3ccc(C)c(C)c3)C2)n1` (centres undefined) here?
The solubility kinetic was 42.4 µg/mL (≈ 129 µM).

Which solubility kinetic does the source give for `O=S(=O)(NCc1ccccn1)c1ccc(Cl)c(C(F)(F)F)c1` here?
The solubility kinetic was 16.5 µg/mL (≈ 47 µM).

Which solubility kinetic does the source give for `O=c1[nH]cc(COCC(F)CCl)c(=O)[nH]1` (centres undefined) here?
Its solubility kinetic is over 35.5 µg/mL.

With `CC(=O)Nc1ccc(/C=N/N2C(C)CCCC2C)cc1` (centres undefined) as the molecule, how does the solubility kinetic read?
Its solubility kinetic is over 41 µg/mL.

For `COc1ccc(S(=O)(=O)NCCC(=O)NC2CCCCC2C)cc1[N+](=O)[O-]` (centres undefined), which solubility kinetic is on record?
Its solubility kinetic is 20.1 µg/mL (≈ 50.3 µM).

Which solubility kinetic does the source give for `CCOC(=O)C1CCN(CCC(=O)Nc2ccc(C)cc2)CC1` here?
Its solubility kinetic is over 47.8 µg/mL.

For `Cn1nc(C(F)(F)F)c2cc(C(=O)N3CCOCC3)sc21`, which solubility kinetic is on record?
The solubility kinetic was over 47.9 µg/mL.

For `O=C(Nc1cc2c(cc1Br)OCCO2)c1ccc(=O)[nH]c1`, which solubility kinetic is on record?
Its solubility kinetic is over 52.7 µg/mL.

For `CCOC(=O)CNC(=O)c1cccnc1Oc1ccc(Cl)cc1`, which solubility kinetic is on record?
Its solubility kinetic is 20.2 µg/mL (≈ 60.3 µM).

Which solubility kinetic does the source give for `Cc1nc(-c2cccs2)ccc1C(=O)O` here?
Its solubility kinetic is over 32.9 µg/mL.

Which solubility kinetic does the source give for `COc1ccccc1CCC(=O)Nc1nccs1` here?
Its solubility kinetic is 8.6 µg/mL (≈ 32.8 µM).

Which solubility kinetic does the source give for `O=C(Nc1cccc(S(=O)(=O)N2CCCCC2)c1)c1cc(=O)[nH]c2ccccc12` here?
The solubility kinetic was 9.2 µg/mL (≈ 22.4 µM).

With `O=C1NC(=Nc2ccccc2)SC1Cc1ccccc1` (centres undefined) as the molecule, how does the solubility kinetic read?
Its solubility kinetic is 4.6 µg/mL (≈ 16.3 µM).

Which solubility kinetic does the source give for `Cn1c(=O)c2c([nH]c(=S)n2Cc2ccc(Cl)cc2)n(C)c1=O` here?
The solubility kinetic was over 50.5 µg/mL.

With `O=C(NCC(=O)N1CCCC1)c1ccc(Br)cc1` as the molecule, how does the solubility kinetic read?
Its solubility kinetic is over 46.7 µg/mL.

Which solubility kinetic does the source give for `CCN(CC)C(=O)c1ccc(CS(=O)(=O)Cc2ccccc2)cc1` here?
Its solubility kinetic is over 51.8 µg/mL.

With `COC(=O)c1ccc(COc2ccc(NC(C)=O)cc2)o1` as the molecule, how does the solubility kinetic read?
The solubility kinetic was over 43.4 µg/mL.

With `NC(=O)C1CCN(C(=O)c2ccc(Cl)c(S(=O)(=O)N3CCCCCC3)c2)CC1` as the molecule, how does the solubility kinetic read?
Its solubility kinetic is over 64.2 µg/mL.

For `COc1ccc(NC(=O)CN(C)C(=O)Cc2ccsc2)cc1`, which solubility kinetic is on record?
Its solubility kinetic is 42 µg/mL (≈ 132 µM).

For `O=c1c2ccccc2nc2oc3ccccc3n12`, which solubility kinetic is on record?
Its solubility kinetic is 1.1 µg/mL (≈ 4.66 µM).

For `O=C(CSc1ncccc1C(=O)O)NC1CCCCC1`, which solubility kinetic is on record?
Its solubility kinetic is 39.8 µg/mL (≈ 135 µM).

For `O=C(NC1CCCN(Cc2ccccc2F)C1)C1CCC1` (centres undefined), which solubility kinetic is on record?
Its solubility kinetic is over 43.6 µg/mL.

With `Nc1ccc2c(c1)OC1(CCCCC1)O2` as the molecule, how does the solubility kinetic read?
Its solubility kinetic is 19.1 µg/mL (≈ 93.1 µM).

For `O=C(O)c1cc(-c2ccc(Cl)cc2)n(-c2ccc(F)cc2)n1`, which solubility kinetic is on record?
Its solubility kinetic is over 47.5 µg/mL.

Which solubility kinetic does the source give for `CN(Cc1ccccc1)S(=O)(=O)c1ccc(NC(=O)c2ccccc2C(=O)O)cc1` here?
The solubility kinetic was 61.7 µg/mL (≈ 145 µM).

Which solubility kinetic does the source give for `Cc1ccc(NC(=O)Nc2ccc3c(c2)C(=O)OC3)cc1Cl` here?
Its solubility kinetic is under 0.3 µg/mL.

For `COC1=C(N)C(=O)c2nc(-c3nc(C(=O)O)c(C)c(-c4ccc(OC)c(OC)c4O)c3N)ccc2C1=O`, which solubility kinetic is on record?
The solubility kinetic was 74.9 µg/mL (≈ 148 µM).

With `CNC(=S)N1CCN(c2nc3ccccc3s2)CC1` as the molecule, how does the solubility kinetic read?
Its solubility kinetic is 4 µg/mL (≈ 13.7 µM).

With `CC(C)CNC(=S)N1CCC(C(=O)c2ccc(F)cc2)CC1` as the molecule, how does the solubility kinetic read?
The solubility kinetic was over 48.4 µg/mL.

For `CCCc1nc2c(sc3nc4c(cc32)COC(C)(C)C4)c(=O)o1`, which solubility kinetic is on record?
Its solubility kinetic is 24.1 µg/mL (≈ 72.9 µM).

With `Cc1cccc(-c2nc(Nc3ccc(O)cc3)c3ccccc3n2)c1` as the molecule, how does the solubility kinetic read?
Its solubility kinetic is 5.8 µg/mL (≈ 17.7 µM).

For `O=C(COc1ccccc1)NCC(=O)Nc1ccncc1`, which solubility kinetic is on record?
The solubility kinetic was over 42.8 µg/mL.

Which solubility kinetic does the source give for `CC1CCC2(CC1)NC(=O)N(CC(=O)NCc1ccc3c(c1)OCO3)C2=O` (centres undefined) here?
The solubility kinetic was 6.1 µg/mL (≈ 16.3 µM).
